Results reported in US11072634B2, “Inhibitors of transglutaminases” (Zedira GmbH, priority 2016, dated 2021).

Legend:
[1] = biological target: T1, recombinant human factor XIII A-subunit (rhFXIII-A, plasma transglutaminase) (Homo sapiens, UniProt P00488); assay: Inhibition of rec. human coagulation factor XIII (fluorescence, Abz-NE(CAD-DNP)EQVSPLILLK-OH); assay type: biochemical; settings: Table 1, selectivity with respect to FXIII; read-out: IC50 FXIII
T1 construct: His6; purchased Zedira 1027 (so in the source); T027)
T1 sequence (P00488 39-732 limits assumed): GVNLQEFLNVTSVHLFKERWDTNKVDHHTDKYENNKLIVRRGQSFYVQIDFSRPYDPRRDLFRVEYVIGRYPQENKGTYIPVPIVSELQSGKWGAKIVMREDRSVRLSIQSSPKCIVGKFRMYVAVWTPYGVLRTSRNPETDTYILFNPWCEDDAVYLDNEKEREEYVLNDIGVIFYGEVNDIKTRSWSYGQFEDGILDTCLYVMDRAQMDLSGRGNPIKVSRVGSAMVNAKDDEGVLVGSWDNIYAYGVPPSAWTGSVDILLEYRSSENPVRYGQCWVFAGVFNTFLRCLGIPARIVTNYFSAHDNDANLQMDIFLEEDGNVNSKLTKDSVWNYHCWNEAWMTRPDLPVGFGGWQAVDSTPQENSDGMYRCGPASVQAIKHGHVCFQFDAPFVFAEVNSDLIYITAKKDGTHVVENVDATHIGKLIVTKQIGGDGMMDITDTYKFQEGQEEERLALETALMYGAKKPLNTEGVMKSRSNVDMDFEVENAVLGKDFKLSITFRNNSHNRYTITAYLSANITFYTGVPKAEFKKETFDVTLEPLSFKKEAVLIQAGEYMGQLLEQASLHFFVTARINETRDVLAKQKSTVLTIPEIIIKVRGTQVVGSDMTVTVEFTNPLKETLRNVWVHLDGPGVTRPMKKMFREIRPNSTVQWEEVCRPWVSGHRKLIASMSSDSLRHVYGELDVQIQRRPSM
Method in brief: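 His6-rhFXIII activated by human alpha thrombin in Tris buffer pH 7.4 with 7.5 mM CaCl2, 5 mM DTT, 13.4 mM glycine methylester and 50 μM quenched peptide substrate. Fluorescence (ex 313, em 418 nm) followed at 37 °C for 35 min; IC50 from slope between 20 and 30 min versus 2% DMSO control.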

[2] = tested on: Huh7 (human liver carcinoma cell line); assay: Metabolic activity, EZ4U-Assay; assay type: cell-based; settings: highest concentration 1 mM
Method: (§1) The following cell lines are used for determination of cytotoxicity: • CaCo2 (human colon carcinoma cell line) • Huh7 (human liver carcinoma cell line).
(§2) Cells are cultivated in DMEM/10% FCS at 37° C. and 5% CO2 in a 96 well plate with an initial seeding density of 2×10^4 cells/well.
(§3) Transglutaminase inhibitors are added to the cells with final concentrations from 0.1 μM to 1 mM one hour after seeding. The different inhibitor dilutions are prepared in DMSO, resulting in a final concentration of 1% (v/v) DMSO in every well (2 μl inhibitor in 200 μl cell culture medium). Cycloheximide (2.5 μg/ml) and Camptothecin (0.2 μg/ml) are used as control compounds. All measurements are performed in triplicates.
(§4) Determination of metabolic activity using EZ4U-Assay (Biomedica, Cat. No. BI-5000).
(§5) After 48 h of incubation with inhibitors or controls, the tetrazolium substrate is added to the cells. Substrate turnover by the cells is measured over two hours at 450 nm (using 630 nm was reference wavelength).

[3] = tested on: CaCo2 (human colon carcinoma cell line); assay: Metabolic activity, EZ4U-Assay; assay type: cell-based; settings: highest concentration 1 mM
Method: as §1, §2, §3, §4, §5

[4] = tested on: Huh7 (human liver carcinoma cell line); assay: Cell Proliferation ELISA, BrdU; assay type: cell-based; settings: highest concentration 1 mM
Method: as §1, §2, §3
(§6) Determination of proliferation using Cell Proliferation ELISA, BrdU (Roche, Cat. No. 11647229001).
(§7) After 24 h of incubation with inhibitors or controls, BrdU is added to the cells. After further incubation for 18 h, the cells are fixed and cellular DNA becomes denatured. A monoclonal antibody (conjugated with peroxidase) raised against BrdU is added to the wells and binds to BrdU which is incorporated into the DNA. Substrate solution is added and absorbance at 450 nm is recorded. Further analysis is performed according to the manufacturer's protocol.

[5] = tested on: CaCo2 (human colon carcinoma cell line); assay: Cell Proliferation ELISA, BrdU; assay type: cell-based; settings: highest concentration 1 mM
Method: as §1, §2, §3, §6, §7

Row | SMILES | IC50 [1] [µM] | Cytotoxicity concentration (>10% deviation from negative control), EZ4U, Huh-7 [2] [mM] | Cytotoxicity concentration (>10% deviation from negative control), EZ4U, Caoo2 [3] [mM] | Cytotoxicity concentration (>10% deviation from negative control), BrdU, Huh-7 [4] [mM] | Cytotoxicity concentration (>10% deviation from negative control), BrdU, Caco2 [5] [mM]
1 | CC(=O)N[C@@H](CCC(=O)C(N)=O)C(=O)N1CCN(c2ccccc2Cl)CC1 [Compound E06, (S)-5-acetamido-6-(4-(2-chlorophenyl)piperazin-1-yl)-2,6-dioxohexanamide] | > 100 | >1 | >1 | >1 | >1
2 | COC(=O)[C@H](CC(C)C)NC(=O)[C@@H]1CCCN1C(=O)[C@@H](NC(=O)[C@H](CCC(=O)C(N)=O)NC(=O)OCc1ccccc1)C(C)C [Compound E02, (S)-methyl 2-((S)-1-((S)-2-((S)-6-amino-2-(benzyloxycarbonylamino)-5,6-dioxo-hexanamido)-3-methylbutanoyl)pyrrolidine-2-carboxamido)-4-methylpentanoate] | > 100 | >1 | >1 | >1 | >1
3 | CC(=O)N1CCC[C@H]1C(=O)N[C@@H](CCC(=O)C(N)=O)C(=O)N1CCN(c2ncccc2C)CC1 [Compound E07, (S)-1-acetyl-N—((S)-6-amino-1-(4-(3-methylpyridin-2-yl)piperazin-1-yl)-1,5,6-trioxohexan-2-yl)pyrrolidine-2-carboxamide] | > 100 | >1 | >1 | >1 | >1
